Reference: ChEMBL document CHEMBL1132748, “Synthesis and antiviral activities of N-9-oxypurine 1,3-dioxolane and 1,3-oxathiolane nucleosides” (2000)
Activity calls are given as the source filed them. The rule behind the calls is not given here.

Legend:
Human betaherpesvirus 5 = test: Anti-herpetic activity and cytotoxicity evaluated against HCMV-1 (WFI strain) in plaque reduction assay in vero cells and Flow 2002 (human fibroblast) cell; inactive; assay type: functional, organism-based
[1] = system: Human immunodeficiency virus; test: Antiviral activity was assessed against HIV in MT-4 (human T-helper) cells at a concentration up to 100 ug/mL; inactive; assay type: functional, organism-based
Homo sapiens = species: Homo sapiens; test: Cytotoxicity was assessed against in MT-4 (human T-helper) cells at a concentration up to 100 ug/mL; inactive; assay type: functional, cell-based
Human alphaherpesvirus 2 [2] = test: Anti-herpetic activity and cytotoxicity was evaluated against HSV-2 (186 strain) in plaque reduction assay in vero cells and Flow 2002 (human fibroblast) cell; inactive; assay type: functional, organism-based
Hepatitis B virus = test: Antiviral activity was assessed against HBV in hepatoma cell line 2.2.15; inactive; assay type: functional, organism-based; settings: HepG2 2.2.15
Human alphaherpesvirus 1 [3] = test: Anti-herpetic activity and cytotoxicity was evaluated against HSV-1 (KOS strain) in plaque reduction assay in vero cells and Flow 2002 (human fibroblast) cell; inactive; assay type: functional, organism-based
Human alphaherpesvirus 1 [4] = test: Anti-herpetic activity and cytotoxicity of compound was evaluated against HSV-1 (KOS strain) at concentration up to 100 ug/mL; inactive; assay type: functional, organism-based
Human alphaherpesvirus 2 [5] = test: Anti-herpetic activity and cytotoxicity of compound was evaluated against HSV-2 (186 strain) at concentration 100 ug/mL; inactive; assay type: functional, organism-based
[6] = system: Human immunodeficiency virus; test: Cytotoxicity of compound was assessed against HIV in MT-4 (human T-helper) cells; inactive; assay type: functional

Compound | Activity (Human betaherpesvirus 5) | Activity [1] | Activity (Homo sapiens) | Activity (Human alphaherpesvirus 2 [2]) | Activity (Hepatitis B virus) | Activity (Human alphaherpesvirus 1 [3]) | Activity (Human alphaherpesvirus 1 [4]) | Activity (Human alphaherpesvirus 2 [5]) | CD50 [6]
OCC1O[C@H](On2cnc3c(O)ncnc32)CS1 (stereo not given in full) | inactive | inactive | inactive | inactive | inactive | inactive |  |  | 
Nc1nc(O)c2ncn(O[C@H]3COC(CO)O3)c2n1 (stereo not given in full) |  |  |  |  |  |  | inactive | inactive | 
Nc1ncnc2c1ncn2O[C@H]1CSC(CO)O1 (stereo not given in full) | inactive | inactive | inactive | inactive | inactive | inactive |  |  | 
OCC1OC[C@@H](On2cnc3c(Cl)ncnc32)O1 (stereo not given in full) | inactive | inactive | inactive | inactive | inactive | inactive |  |  | 
OCC1O[C@@H](On2cnc3c(Cl)ncnc32)CS1 (stereo not given in full) | inactive | inactive | inactive | inactive | inactive | inactive |  |  | 
OCC1OC[C@@H](On2cnc3c(O)ncnc32)O1 (stereo not given in full) | inactive | inactive | inactive | inactive | inactive | inactive |  |  | 
Nc1ncnc2c1ncn2O[C@@H]1CSC(CO)O1 (stereo not given in full) | inactive | inactive | inactive | inactive | inactive | inactive |  |  | 
OCC1OC[C@H](On2cnc3c(O)ncnc32)O1 (stereo not given in full) | inactive | inactive | inactive | inactive | inactive | inactive |  |  | 
COc1ncnc2c1ncn2O[C@H]1CSC(CO)O1 (stereo not given in full) | inactive | inactive | inactive | inactive | inactive | inactive |  |  | 
OCC1OC[C@H](On2cnc3c(Cl)ncnc32)O1 (stereo not given in full) | inactive | inactive | inactive | inactive | inactive | inactive |  |  | 
COc1ncnc2c1ncn2O[C@@H]1CSC(CO)O1 (stereo not given in full) | inactive | inactive | inactive | inactive | inactive | inactive |  |  | 
Nc1ncnc2c1ncn2O[C@@H]1COC(CO)O1 (stereo not given in full) | inactive | inactive | inactive | inactive | inactive | inactive |  |  | 
COc1ncnc2c1ncn2O[C@@H]1COC(CO)O1 (stereo not given in full) | inactive | inactive | inactive | inactive | inactive | inactive |  |  | 
Nc1ncnc2c1ncn2O[C@H]1COC(CO)O1 (stereo not given in full) | inactive | inactive | inactive | inactive | inactive | inactive |  |  | 
COc1ncnc2c1ncn2O[C@H]1COC(CO)O1 (stereo not given in full) | inactive | inactive | inactive | inactive | inactive | inactive |  |  | 
OCC1O[C@@H](On2cnc3c(O)ncnc32)CS1 (stereo not given in full) | inactive | inactive |  | inactive | inactive | inactive |  |  | 10 µg/mL
OCC1O[C@H](On2cnc3c(Cl)ncnc32)CS1 (stereo not given in full) | inactive | inactive | inactive | inactive | inactive | inactive |  |  | 
Nc1nc(O)c2ncn(O[C@@H]3COC(CO)O3)c2n1 (stereo not given in full) |  |  |  |  |  |  | inactive | inactive | 
